Broadly, the pIC50 is the negative decadic logarithm of the IC50, by convention in mol/L.

Here are results for one compound from EP1391197B1, “Process for preparation of compositions with a high content in avarol and their use” (KliniPharm GmbH, priority 2002, dated 2004).

pIC50: −log10 of the molar value.

For this experiment, the target named is T1, 5-Lipoxygenase (Homo sapiens, UniProt P09917).
T1 construct: Granulozyten freiwilliger Spender; endogenous in cells; host or cells: granulocytes of volunteer donors
T1 sequence (P09917 1-674): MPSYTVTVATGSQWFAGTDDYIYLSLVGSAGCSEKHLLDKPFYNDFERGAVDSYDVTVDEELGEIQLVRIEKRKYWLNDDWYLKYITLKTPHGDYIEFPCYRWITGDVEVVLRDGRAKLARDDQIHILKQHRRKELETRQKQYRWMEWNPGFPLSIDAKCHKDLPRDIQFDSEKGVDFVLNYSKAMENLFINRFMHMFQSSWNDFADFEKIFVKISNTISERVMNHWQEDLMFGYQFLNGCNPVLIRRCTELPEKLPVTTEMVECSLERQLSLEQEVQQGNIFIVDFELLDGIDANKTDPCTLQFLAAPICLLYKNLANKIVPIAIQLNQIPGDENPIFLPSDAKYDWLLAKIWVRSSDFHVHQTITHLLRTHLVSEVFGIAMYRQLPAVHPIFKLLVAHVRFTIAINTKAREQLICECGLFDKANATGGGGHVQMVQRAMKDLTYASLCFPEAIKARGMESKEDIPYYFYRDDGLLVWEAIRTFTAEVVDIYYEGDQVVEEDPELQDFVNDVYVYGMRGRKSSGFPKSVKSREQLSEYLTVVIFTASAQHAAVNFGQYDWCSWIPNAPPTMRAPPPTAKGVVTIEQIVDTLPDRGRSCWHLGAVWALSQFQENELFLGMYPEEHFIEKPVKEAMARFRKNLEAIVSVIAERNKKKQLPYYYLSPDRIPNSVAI
Briefly: 5-lipoxygenase test in granulocytes (HPLC of 5-lipoxygenase products). The experiment is classed as cell-based. Conditions: granulocytes of volunteer donors, arachidonic acid and calcium ionophore, 37°C, 10 min, pH 7,4; read-out: IC50- Wert (Bildung von Biotransformationsprodukten der 5-Lipoxygenase). On the procedure: Granulozyten freiwilliger Spender [5-10 x 10^6 / ml] wurden in gepufferter physiologischer Kochsalzlösung [pH 7,4] mit Arachidonsäure [40µmol] und Calciumionophor [10µmol] und steigenden Konzentrationen [10nMol bis 10µMol] der Prüfsubstanzen, Avarol bzw. einer Avarol - Zusammensetzung gemäß Beispiel 3, bei 37°C 10 Minuten lang inkubiert. Anschließend wurden die Reaktion durch Zugabe von 1ml Methanol beendet, die Proben zentrifugiert und die Konzentration an Biotransformations-Produkten der 5-Lipoxygenase im Überstand per HPLC im UV bei 280 und 235nm analysiert. Avarol und die neue Zusammensetzung mit hohem Avarolgehalt, der Dysidea avara-Nativextrakt, hemmten die Bildung von Biotransformationsprodukten der 5-Lipoxygenase. Die IC50- Werte unterschieden sich aber auffällig deutlich. Während für Avarol ein IC50- Wert von 1,3 µM ermittelt wurde, der sich mit Literaturangaben deckt, hemmte die neue Zusammensetzung die Bildung von Produkten der 5-Lipoxygenase bereits mit einem IC50- Wert von 58 nM und war damit überraschend stärker wirksam als Avarol.

Turning to `CC1=CCC[C@H]2[C@](C)(Cc3cc(O)ccc3O)[C@@H](C)CC[C@]12C` [Avarol], the pIC50 is 5.89.
